In PMC2797259 (The Journal of Biological Chemistry, 2009):

Molecular target: T1, BacA (Bacillus subtilis, UniProt P39638)
T1 sequence (P39638 1-204): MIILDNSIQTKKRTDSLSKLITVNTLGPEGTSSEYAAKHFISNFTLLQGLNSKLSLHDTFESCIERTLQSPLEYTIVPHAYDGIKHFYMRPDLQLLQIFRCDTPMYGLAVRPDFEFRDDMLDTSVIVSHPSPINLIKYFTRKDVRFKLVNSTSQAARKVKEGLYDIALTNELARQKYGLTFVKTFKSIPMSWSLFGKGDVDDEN
Test: HPLC, UV, 1H NMR and ESI-MS of products
Format: biochemical
Details: decarboxylation; Tris-HCl pH 8.1

O=C(O)C(=O)CC1(C(=O)O)C=CC(O)C=C1 (stereo not shown) [prephenate]
HPLC, UV, 1H NMR and ESI-MS of products: prephenate is a substrate for BacA and not for BacB
